In patent US7867979B2, “Drug composition for treating 2 type diabetes and diabetic chronicity complications” (Hainan Deze Drug Research Co., Ltd., priority 2006, dated 2011):

How the values were obtained:
Assay type in all cases: in vivo, Goto-Kakizaki rats (GK)
[1] = system: diabetic GK rats; assay: Blood glucose and lipid in GK rats; settings: different ratio experiment; GK rats, high fat diet, oral daily 12 weeks, total 20 mg/kg per Table 3
Text: The GK (Goto-Kakizaki) rat is the spontaneous model of diabetes, the pathogenesis of GK rat is very similar to the pathogenesis of type 2 diabetes. After diabetes attack, hyperglycemia and insulin secretion weakened emerge rapidly, the latter diseases may be complicated by retinopathy, micro-vascular disease, neuropathy, nephropathy in GK rat. The GK rats have been widely used in type 2 diabetes study, so we choose GK rat as the animal model of the following experiment. […] Then they can be mixed or diluted in accordance with the dose and the ratio. 1.3 Goto-Kakizaki rats (GK) (4 months age, ♀♂) and Wistar rats (SPF level, ♀♂) were purchased from Shanghai SLAC laboratory animal Co., Ltd. In addition to the normal rats, the other rats were fed with high fat diet (20% protein and 3.5% cholesterol). After the rats was feeding adaptation for one week, The GK rats which the blood glucose level was more than 11.1 mmol/L were selected, and then divided into the following groups random: GK rats control group (n=10); mangiferin groups (10, 30, 200 mg/kg, each group 10 rats); berberine groups (10, 20, 150 mg/kg, each group 10 rats); composition group 1[[mangiferin (10 mg/kg)+berberine (10 mg/kg)], 10 rats]; composition group 2[[mangiferin (200 mg/kg)+berberine (150 mg/kg)], 10 rats]. Wistar rats are normal control group (10 rats). GK rats control group and Wistar rats group were given saline. The other groups were given test drugs. Test samples were administrated orally at the same time every day for 12 weeks. 3.1 Blood Glucose and lipid: The blood specimens were taken at the end of the test. Plasma glucose (GLU), triglycerides (TG), total cholesterol (TC) were determined by HITACHI7080 automatic biochemistry analyzer. […] The results have been calculated as mean±SD ( x±SD) and the comparisons of the data have been done by t-test. […] Mangiferin and berberine are prepared in accordance with the method of preparation of example 1 and 2. Then they can be mixed in accordance with the dose and the ratio such as table 3. 1.2 Animal: Goto-Kakizaki rats (GK) (4 months age, ♀♂) and Wistar rats (SPF level, ♀♂) were purchased from Shanghai SLAC laboratory animal Co., Ltd. In addition to the normal rats, the other rats were fed with high fat diet (20% protein and 3.5% cholesterol). After the rats was feeding adaptation for one week, GK rats that the blood glucose level of the GK rats was more than 11.1 mmol/L were selected, and then random divided into the following groups as follows (Table 3): There are ten rats in every group. GK rats control group and wistar rats group were given saline. The other groups were given test drugs. Test samples were administrated orally at the same time every day for 12 weeks. The measurements are as same as the above experiment.

[2] = system: Superoxidedismutase (SOD); assay: Superoxidedismutase (SOD) in kidney tissue homogenate of GK rats; settings: different ratio experiment, oral daily 12 weeks, total 20 mg/kg per Table 3
Method: GK rats control group (n=10); mangiferin groups (10, 30, 200 mg/kg, each group 10 rats); berberine groups (10, 20, 150 mg/kg, each group 10 rats); composition group 1[[mangiferin (10 mg/kg)+berberine (10 mg/kg)], 10 rats]; composition group 2[[mangiferin (200 mg/kg)+berberine (150 mg/kg)], 10 rats]. Wistar rats are normal control group (10 rats). GK rats control group and Wistar rats group were given saline. The other groups were given test drugs. Test samples were administrated orally at the same time every day for 12 weeks. 3.3.1 Preparation of tissue homogenate: Rats were killed by femoral artery bloodletting after administration of the rats for 12-weeks. Kidney tissue of the rats were taken, the blood of kidney tissue were washed with cooling saline (4° C.), then the remnant water was absorbed with filter paper, the kidney tissue was weighed. Per gram kidney tissue was added into 10 ml saline, which was put in homogenized machine (10,000 r/min, 10 seconds, 3rd), 10% tissue homogenate was prepared, the tissue homogenate was centrifuged (4000 r/min) for 10 minutes to get supernatant, the supernatant was saved in −20° C. for determination. […] SOD is determined by Xanthine Oxidase calorimetric analysis, the test box was bought from Nanjing Jiancheng Bioengineering Research Institute. […] The results have been calculated as mean±SD ( x±SD) and the comparisons of the data have been done by t-test. There are ten rats in every group. GK rats control group and wistar rats group were given saline. The other groups were given test drugs. Test samples were administrated orally at the same time every day for 12 weeks. The measurements are as same as the above experiment.

[3] = system: Propyl dialdehyde (MDA); assay: Propyl dialdehyde (MDA) in kidney tissue homogenate of GK rats; settings: different ratio experiment, oral daily 12 weeks, total 20 mg/kg per Table 3
Method: GK rats control group (n=10); mangiferin groups (10, 30, 200 mg/kg, each group 10 rats); berberine groups (10, 20, 150 mg/kg, each group 10 rats); composition group 1[[mangiferin (10 mg/kg)+berberine (10 mg/kg)], 10 rats]; composition group 2[[mangiferin (200 mg/kg)+berberine (150 mg/kg)], 10 rats]. Wistar rats are normal control group (10 rats). GK rats control group and Wistar rats group were given saline. The other groups were given test drugs. Test samples were administrated orally at the same time every day for 12 weeks. 3.3.1 Preparation of tissue homogenate: Rats were killed by femoral artery bloodletting after administration of the rats for 12-weeks. Kidney tissue of the rats were taken, the blood of kidney tissue were washed with cooling saline (4° C.), then the remnant water was absorbed with filter paper, the kidney tissue was weighed. Per gram kidney tissue was added into 10 ml saline, which was put in homogenized machine (10,000 r/min, 10 seconds, 3rd), 10% tissue homogenate was prepared, the tissue homogenate was centrifuged (4000 r/min) for 10 minutes to get supernatant, the supernatant was saved in −20° C. for determination. 3.3.2.2 Propyl dialdehyde (MDA): MDA is determined by TBA, the test box was bought from Nanjing Jiancheng Bioengineering Research Institute. […] The results have been calculated as mean±SD ( x±SD) and the comparisons of the data have been done by t-test. There are ten rats in every group. GK rats control group and wistar rats group were given saline. The other groups were given test drugs. Test samples were administrated orally at the same time every day for 12 weeks. The measurements are as same as the above experiment.

[4] = target: T1, aldose reductase (AR) (Rattus norvegicus, UniProt P07943); assay: Activity of aldose reductase (AR) of lens in GK rats; settings: different ratio experiment, oral daily 12 weeks, specific activity, in U/mg protein; for AR activity of lens NADH (0.1 mmol/L): total 20 mg/kg per Table 3, NADH 0.1 mmol/L system; for AR activity of lens NADPH (0.1 mmol/L): total 20 mg/kg per Table 3, NADPH 0.1 mmol/L system
T1 construct: from tissue; host or cells: lens of GK (Goto-Kakizaki) and Wistar rats
Method: GK rats control group (n=10); mangiferin groups (10, 30, 200 mg/kg, each group 10 rats); berberine groups (10, 20, 150 mg/kg, each group 10 rats); composition group 1[[mangiferin (10 mg/kg)+berberine (10 mg/kg)], 10 rats]; composition group 2[[mangiferin (200 mg/kg)+berberine (150 mg/kg)], 10 rats]. Wistar rats are normal control group (10 rats). GK rats control group and Wistar rats group were given saline. The other groups were given test drugs. Test samples were administrated orally at the same time every day for 12 weeks. […] At the End of the experiment, the left side lens of rats was taken, then these lenses were added into glycerol and put into refrigerator (−80° C.□) to preserve to determine AR activity. The determination method of AR activity refer to Maragoudakis's method and change slightly, that is: the activity of enzyme is indicated by the record of the absorbance of NADPH in 340 nm decline IOU. […] The second reaction system is 0.1 mmol/L NADH instead of NADPH, the rest of the reagent is same as one of the first response system. The activity of enzyme and the protein content in tissue homogenate are determined at the same time. a unit enzyme activity is indicated by the quantity of the enzyme that produce 1 μmol NADP^+ (or NDA^+) in one minute. […] The results have been calculated as mean±SD ( x±SD) and the comparisons of the data have been done by t-test. There are ten rats in every group. GK rats control group and wistar rats group were given saline. The other groups were given test drugs. Test samples were administrated orally at the same time every day for 12 weeks. The measurements are as same as the above experiment.

AR activity of lens NADH (0.1 mmol/L) [4]	AR activity of lens NADPH (0.1 mmol/L) [4]	SMILES	GLU [1]	Lipid TC [1]	Lipid TG [1]	Measurements about oxidation SOD [2]	Measurements about oxidation MDA [3]
1.39 ± 0.53	2.48 ± 0.58	COc1ccc2cc3[n+](cc2c1OC)CCc1cc2c(cc1-3)OCO2 [Composition H]	12.34 ± 2.09 mmol/L	3.33 ± 0.26 mmol/L	2.91 ± 0.09 mmol/L	171.10 ± 13.81 U/mg pro	3.52 ± 0.77 nmol/mg pro
1.97 ± 0.46	3.11 ± 0.56	O=c1c2cc(O)c(O)cc2oc2cc(O)c(C3OC(CO)C(O)C(O)C3O)c(O)c12 (centres unmarked) [Composition A]	14.11 ± 2.03 mmol/L	3.26 ± 0.26 mmol/L	2.79 ± 0.30 mmol/L	168.26 ± 13.50 U/mg pro	3.43 ± 0.89 nmol/mg pro
